According to ChEMBL document CHEMBL4145663, “Sweet Binders: Carbonic Anhydrase IX in Complex with Sucralose” (ACS Med Chem Lett, 2018):

What was measured:
Carbonic anhydrase 2 = Carbonic anhydrase 2 (Homo sapiens, UniProt P00918); test: Binding affinity to carbonic anhydrase 2 (unknown origin)
Carbonic anhydrase 9 = Carbonic anhydrase 9 (Homo sapiens, UniProt Q16790); test: Binding affinity to carbonic anhydrase 9 (unknown origin) expressed in Escherichia coli BL21 (DE3)

Ki (Carbonic anhydrase 2) [nM] | Ki (Carbonic anhydrase 9) [nM] | Compound
300 | 2200 | OC[C@H]1O[C@H](O[C@]2(CCl)O[C@H](CCl)[C@@H](O)[C@@H]2O)[C@H](O)[C@@H](O)[C@H]1Cl [SUCRALOSE]
> 20000 | > 20000 | OC[C@H]1O[C@@](CO)(O[C@H]2O[C@H](CO)[C@@H](O)[C@H](O)[C@H]2O)[C@@H](O)[C@@H]1O [SUCROSE]
